# In ChEMBL document CHEMBL5723379, “Affinity On-target Cellular Literature for EUbOPEN Chemogenomic Library” (2024):
# Legend:
# [1] = biological target: Nuclear receptor subfamily 1 group D member 1 (Homo sapiens, UniProt P20393); experiment: Affinity On-target Cellular interaction: (Reporter gene assay (HEK293T cells)) EUB0001155a NR1D1; assay type: functional, cell-based, HEK-293T; set-up: mode of action Agonist, recommended concentration 10 uM
# [2] = biological target: Nuclear receptor subfamily 1 group D member 2 (Homo sapiens, UniProt Q14995); experiment: Affinity On-target Cellular interaction: (Reporter gene assay (HEK293T cells)) EUB0001155a NR1D2; assay type: functional, cell-based, HEK-293T; set-up: mode of action Agonist, recommended concentration 10 uM
# Chain of Nuclear receptor subfamily 1 group D member 2 (Q14995 whole entry): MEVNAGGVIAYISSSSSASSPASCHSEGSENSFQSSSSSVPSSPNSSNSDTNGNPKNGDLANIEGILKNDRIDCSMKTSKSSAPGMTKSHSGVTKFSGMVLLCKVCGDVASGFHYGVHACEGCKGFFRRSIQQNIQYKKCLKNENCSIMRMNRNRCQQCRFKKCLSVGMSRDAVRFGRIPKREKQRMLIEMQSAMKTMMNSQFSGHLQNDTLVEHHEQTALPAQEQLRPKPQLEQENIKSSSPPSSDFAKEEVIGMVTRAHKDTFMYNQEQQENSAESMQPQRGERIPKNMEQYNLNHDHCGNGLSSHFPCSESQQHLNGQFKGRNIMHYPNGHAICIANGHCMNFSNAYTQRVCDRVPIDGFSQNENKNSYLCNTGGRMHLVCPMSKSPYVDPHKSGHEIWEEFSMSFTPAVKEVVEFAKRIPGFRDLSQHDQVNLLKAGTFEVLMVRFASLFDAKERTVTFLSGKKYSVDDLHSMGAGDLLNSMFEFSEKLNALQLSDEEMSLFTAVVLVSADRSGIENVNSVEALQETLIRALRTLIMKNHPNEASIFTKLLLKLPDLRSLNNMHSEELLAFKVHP
# [3] = biological target: T1, Nuclear receptor ROR-gamma (Homo sapiens, UniProt P51449); experiment: Affinity On-target Cellular interaction: (Reporter gene assay (HEK293T cells)) EUB0001157a RORC; assay type: functional, cell-based, HEK-293T; set-up: mode of action Inverse Agonist, recommended concentration 10 uM
# T1 sequence (P51449 whole entry): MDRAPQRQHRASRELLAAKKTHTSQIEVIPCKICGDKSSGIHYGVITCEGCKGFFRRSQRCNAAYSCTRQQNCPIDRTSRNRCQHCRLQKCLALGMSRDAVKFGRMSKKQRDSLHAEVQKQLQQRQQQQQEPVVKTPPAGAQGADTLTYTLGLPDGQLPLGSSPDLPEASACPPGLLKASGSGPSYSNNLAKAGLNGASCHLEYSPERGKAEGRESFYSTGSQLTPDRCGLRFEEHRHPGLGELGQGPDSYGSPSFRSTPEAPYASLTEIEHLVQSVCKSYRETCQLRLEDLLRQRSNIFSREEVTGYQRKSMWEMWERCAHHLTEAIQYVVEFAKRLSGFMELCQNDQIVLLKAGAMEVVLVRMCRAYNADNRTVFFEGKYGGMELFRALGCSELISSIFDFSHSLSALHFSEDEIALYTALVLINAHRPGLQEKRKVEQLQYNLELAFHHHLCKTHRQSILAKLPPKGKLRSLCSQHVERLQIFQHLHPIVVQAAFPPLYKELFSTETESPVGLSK
# [4] = biological target: Nuclear receptor ROR-alpha (Homo sapiens, UniProt P35398); experiment: Affinity On-target Cellular interaction: (Reporter gene assay (HEK293T cells)) EUB0001157a RORA; assay type: functional, cell-based, HEK-293T; set-up: mode of action Inverse Agonist, recommended concentration 10 uM
# [5] = biological target: T2, Nuclear receptor ROR-beta (Homo sapiens, UniProt Q92753); experiment: Affinity On-target Cellular interaction: (Reporter gene assay (HEK293T cells)) EUB0001157a RORB; assay type: functional, cell-based, HEK-293T; set-up: mode of action Inverse Agonist, recommended concentration 10 uM
# T2 sequence (Q92753 whole entry): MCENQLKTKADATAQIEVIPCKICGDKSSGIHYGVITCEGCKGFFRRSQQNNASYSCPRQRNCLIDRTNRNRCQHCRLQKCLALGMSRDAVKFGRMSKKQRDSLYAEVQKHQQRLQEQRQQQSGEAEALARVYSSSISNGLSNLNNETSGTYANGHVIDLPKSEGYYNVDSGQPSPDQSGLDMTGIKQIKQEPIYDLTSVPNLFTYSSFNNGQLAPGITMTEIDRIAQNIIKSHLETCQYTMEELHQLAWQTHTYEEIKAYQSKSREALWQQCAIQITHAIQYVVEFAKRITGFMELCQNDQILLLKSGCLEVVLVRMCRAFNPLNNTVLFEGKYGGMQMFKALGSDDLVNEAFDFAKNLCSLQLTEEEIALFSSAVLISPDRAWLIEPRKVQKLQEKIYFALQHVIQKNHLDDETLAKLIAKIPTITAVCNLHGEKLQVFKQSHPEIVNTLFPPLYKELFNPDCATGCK
# [6] = biological target: Sodium/glucose cotransporter 2 (Homo sapiens, UniProt P31639); experiment: Affinity On-target Cellular interaction: (AMG uptake assay in presence of 25% human plasma, 293.ETN cells) EUB0002515a SLC5A2; assay type: functional, HEK293; set-up: mode of action Inhibitor, recommended concentration 1 uM
# Bile acid receptor = Bile acid receptor (Homo sapiens, UniProt Q96RI1); experiment: Affinity On-target Cellular interaction: (Reporter gene assay (HEK293T cells)) EUB0001168a NR1H4; assay type: functional, cell-based, HEK-293T; set-up: mode of action Agonist, recommended concentration 1 uM
# Chain of Bile acid receptor (Q96RI1 whole entry): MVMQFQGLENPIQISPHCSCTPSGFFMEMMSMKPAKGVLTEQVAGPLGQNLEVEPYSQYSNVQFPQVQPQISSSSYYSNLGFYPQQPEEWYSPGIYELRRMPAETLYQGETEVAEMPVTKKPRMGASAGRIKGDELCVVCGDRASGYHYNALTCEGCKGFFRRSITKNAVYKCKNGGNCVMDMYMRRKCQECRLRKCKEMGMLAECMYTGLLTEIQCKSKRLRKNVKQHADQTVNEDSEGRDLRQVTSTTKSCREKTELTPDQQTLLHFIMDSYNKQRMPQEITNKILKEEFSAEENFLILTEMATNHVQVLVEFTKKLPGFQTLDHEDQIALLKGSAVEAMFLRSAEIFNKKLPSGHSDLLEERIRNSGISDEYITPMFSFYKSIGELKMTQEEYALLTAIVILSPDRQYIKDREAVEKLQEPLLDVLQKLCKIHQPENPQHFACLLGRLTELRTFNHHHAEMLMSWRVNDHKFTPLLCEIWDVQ
# Adenosine kinase = Adenosine kinase (Homo sapiens, UniProt P55263); experiment: Affinity On-target Cellular interaction: (Intact cell adenosine phosphorylation assay (radiochemical), IMR-32 human neuroblastoma cells) EUB0002485aCl ADK; assay type: functional, cell-based; set-up: mode of action Inhibitor, recommended concentration 1 uM
# Chain of Adenosine kinase (P55263 whole entry): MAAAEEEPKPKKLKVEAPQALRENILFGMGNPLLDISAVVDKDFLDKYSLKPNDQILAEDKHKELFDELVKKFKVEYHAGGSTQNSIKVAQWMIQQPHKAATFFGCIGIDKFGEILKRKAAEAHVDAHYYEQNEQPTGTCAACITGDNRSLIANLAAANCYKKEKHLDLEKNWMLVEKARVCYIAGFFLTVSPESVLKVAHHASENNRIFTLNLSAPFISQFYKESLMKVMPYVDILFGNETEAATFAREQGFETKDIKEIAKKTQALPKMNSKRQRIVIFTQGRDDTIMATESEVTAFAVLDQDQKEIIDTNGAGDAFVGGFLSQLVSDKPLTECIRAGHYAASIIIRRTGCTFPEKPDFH
# [7] = biological target: T3, Sodium- and chloride-dependent glycine transporter 1 (Homo sapiens, UniProt P48067); experiment: Affinity On-target Cellular interaction: (Inhibition of [14C]glycine uptake in human neuroblastoma cells transfected with SLC6A9) EUB0002626aCl SLC6A9; assay type: functional, cell-based, BE(2)-C; set-up: mode of action Inhibitor, recommended concentration 1 uM
# T3 sequence (P48067 whole entry): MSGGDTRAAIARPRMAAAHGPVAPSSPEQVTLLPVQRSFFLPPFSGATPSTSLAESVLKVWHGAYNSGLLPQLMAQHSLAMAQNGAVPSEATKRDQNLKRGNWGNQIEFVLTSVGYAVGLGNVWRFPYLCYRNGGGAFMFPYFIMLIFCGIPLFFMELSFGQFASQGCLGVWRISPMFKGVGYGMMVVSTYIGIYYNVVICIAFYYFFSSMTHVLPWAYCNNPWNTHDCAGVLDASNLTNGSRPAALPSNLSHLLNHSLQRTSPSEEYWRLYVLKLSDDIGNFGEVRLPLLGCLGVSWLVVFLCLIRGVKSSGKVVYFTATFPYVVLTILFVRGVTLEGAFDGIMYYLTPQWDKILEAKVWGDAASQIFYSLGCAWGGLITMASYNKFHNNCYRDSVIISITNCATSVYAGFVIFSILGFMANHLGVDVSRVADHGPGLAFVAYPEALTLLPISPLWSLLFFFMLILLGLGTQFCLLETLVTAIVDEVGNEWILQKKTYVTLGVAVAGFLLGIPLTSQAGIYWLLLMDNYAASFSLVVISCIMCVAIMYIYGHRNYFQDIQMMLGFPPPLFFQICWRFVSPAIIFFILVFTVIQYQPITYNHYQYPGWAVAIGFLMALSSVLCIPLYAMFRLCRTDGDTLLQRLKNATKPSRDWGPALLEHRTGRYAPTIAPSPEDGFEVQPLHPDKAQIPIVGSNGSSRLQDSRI
# [8] = biological target: T3, Sodium- and chloride-dependent glycine transporter 1; experiment: Affinity On-target Cellular interaction: (Inhibition of radiolabelled [3H]glycine uptake in human SK-N-MC cells) EUB0002599a SLC6A9; assay type: functional, cell-based; set-up: mode of action Inhibitor, recommended concentration 1 uM
# [9] = biological target: Triacylglycerol hydrolase DDHD2 (Homo sapiens, UniProt O94830); experiment: Affinity On-target Cellular interaction: (Inhibition of DDHD2 in HEK293T cells measured by competitive activity-based protein profiling) EUB0002612a DDHD2; assay type: functional, cell-based, HEK-293T; set-up: mode of action Inhibitor, recommended concentration 1 uM
# Chain of Triacylglycerol hydrolase DDHD2 (O94830 whole entry): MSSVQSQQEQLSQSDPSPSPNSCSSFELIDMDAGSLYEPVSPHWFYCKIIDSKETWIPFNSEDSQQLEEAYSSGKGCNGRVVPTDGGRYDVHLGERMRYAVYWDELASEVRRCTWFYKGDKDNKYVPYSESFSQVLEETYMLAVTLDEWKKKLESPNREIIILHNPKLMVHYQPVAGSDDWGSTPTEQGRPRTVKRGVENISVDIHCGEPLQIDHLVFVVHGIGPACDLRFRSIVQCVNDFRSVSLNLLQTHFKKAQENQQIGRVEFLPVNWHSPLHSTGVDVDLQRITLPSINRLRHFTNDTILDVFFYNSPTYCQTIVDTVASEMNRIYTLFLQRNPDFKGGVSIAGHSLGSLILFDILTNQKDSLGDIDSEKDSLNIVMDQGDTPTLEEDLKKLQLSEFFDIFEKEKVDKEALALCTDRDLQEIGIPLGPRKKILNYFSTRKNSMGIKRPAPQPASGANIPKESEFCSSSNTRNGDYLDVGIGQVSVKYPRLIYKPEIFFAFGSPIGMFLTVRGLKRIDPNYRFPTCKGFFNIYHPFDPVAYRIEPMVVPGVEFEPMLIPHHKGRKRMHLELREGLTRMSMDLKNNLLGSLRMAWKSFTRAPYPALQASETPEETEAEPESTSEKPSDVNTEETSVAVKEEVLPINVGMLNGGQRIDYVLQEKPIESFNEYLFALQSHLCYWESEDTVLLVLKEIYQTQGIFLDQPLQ
# [10] = biological target: T1, Nuclear receptor ROR-gamma
# [11] = biological target: Monoacylglycerol lipase ABHD6 (Homo sapiens, UniProt Q9BV23)
# Chain of Monoacylglycerol lipase ABHD6 (Q9BV23 whole entry): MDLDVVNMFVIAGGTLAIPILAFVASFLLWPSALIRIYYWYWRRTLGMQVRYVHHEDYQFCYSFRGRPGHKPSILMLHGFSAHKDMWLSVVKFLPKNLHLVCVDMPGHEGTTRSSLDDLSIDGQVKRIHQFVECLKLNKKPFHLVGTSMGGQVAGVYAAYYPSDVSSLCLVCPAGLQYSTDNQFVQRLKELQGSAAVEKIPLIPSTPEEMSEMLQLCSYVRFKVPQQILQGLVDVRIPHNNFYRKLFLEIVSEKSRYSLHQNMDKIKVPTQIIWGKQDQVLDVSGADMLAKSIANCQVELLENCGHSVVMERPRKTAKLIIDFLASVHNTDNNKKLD
# [12] = biological target: Thyroid hormone receptor beta (Homo sapiens, UniProt P10828); experiment: Affinity On-target Cellular interaction: (Reporter gene assay (HEK293T cells)) EUB0002355a THRB; assay type: functional, cell-based, HEK-293T; set-up: mode of action Antagonist, recommended concentration 3 uM
# Chain of Thyroid hormone receptor beta (P10828 whole entry): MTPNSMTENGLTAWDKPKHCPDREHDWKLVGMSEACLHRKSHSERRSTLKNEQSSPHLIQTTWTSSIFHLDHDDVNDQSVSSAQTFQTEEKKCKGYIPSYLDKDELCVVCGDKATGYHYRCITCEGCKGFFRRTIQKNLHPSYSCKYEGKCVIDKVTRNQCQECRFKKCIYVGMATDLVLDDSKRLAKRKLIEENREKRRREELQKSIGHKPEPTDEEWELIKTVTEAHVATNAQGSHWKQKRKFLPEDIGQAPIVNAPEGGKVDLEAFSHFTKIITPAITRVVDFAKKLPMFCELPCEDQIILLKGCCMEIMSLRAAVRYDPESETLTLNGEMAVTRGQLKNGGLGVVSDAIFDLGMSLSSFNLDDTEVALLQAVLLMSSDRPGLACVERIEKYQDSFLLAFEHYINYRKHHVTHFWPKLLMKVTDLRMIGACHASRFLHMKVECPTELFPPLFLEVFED
# [13] = biological target: T4, Sodium-dependent neutral amino acid transporter B(0)AT1 (Homo sapiens, UniProt Q695T7); experiment: Affinity On-target Cellular interaction: (Fluorescence imaging plate reader (FLIPR) membrane potential (FMP) assay, MDCK cells) EUB0002537a SLC6A19; assay type: functional, cell-based; set-up: mode of action Inhibitor, recommended concentration 1 uM
# T4 sequence (Q695T7 whole entry): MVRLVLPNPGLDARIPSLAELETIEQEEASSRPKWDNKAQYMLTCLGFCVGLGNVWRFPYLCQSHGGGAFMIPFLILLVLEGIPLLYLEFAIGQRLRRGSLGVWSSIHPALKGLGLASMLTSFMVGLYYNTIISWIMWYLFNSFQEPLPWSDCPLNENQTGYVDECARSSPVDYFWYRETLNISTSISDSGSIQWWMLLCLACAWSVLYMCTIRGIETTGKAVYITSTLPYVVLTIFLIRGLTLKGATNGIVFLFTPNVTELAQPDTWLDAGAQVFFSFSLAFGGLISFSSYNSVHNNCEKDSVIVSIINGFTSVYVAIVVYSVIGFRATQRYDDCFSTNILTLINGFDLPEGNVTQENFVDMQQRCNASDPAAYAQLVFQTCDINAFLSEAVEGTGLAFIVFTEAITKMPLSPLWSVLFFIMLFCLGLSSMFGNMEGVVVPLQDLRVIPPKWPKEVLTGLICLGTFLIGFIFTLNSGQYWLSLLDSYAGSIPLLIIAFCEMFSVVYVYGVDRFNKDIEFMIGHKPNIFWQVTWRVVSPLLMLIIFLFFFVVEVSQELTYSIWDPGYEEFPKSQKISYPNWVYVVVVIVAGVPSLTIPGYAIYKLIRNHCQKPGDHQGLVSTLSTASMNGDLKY
# [14] = biological target: T4, Sodium-dependent neutral amino acid transporter B(0)AT1; experiment: Affinity On-target Cellular interaction: (Stable isotope uptake assay, MDCK cells) EUB0002537a SLC6A19; assay type: functional, cell-based; set-up: mode of action Inhibitor, recommended concentration 1 uM
# Chain of Nuclear receptor subfamily 1 group D member 1 (P20393 whole entry): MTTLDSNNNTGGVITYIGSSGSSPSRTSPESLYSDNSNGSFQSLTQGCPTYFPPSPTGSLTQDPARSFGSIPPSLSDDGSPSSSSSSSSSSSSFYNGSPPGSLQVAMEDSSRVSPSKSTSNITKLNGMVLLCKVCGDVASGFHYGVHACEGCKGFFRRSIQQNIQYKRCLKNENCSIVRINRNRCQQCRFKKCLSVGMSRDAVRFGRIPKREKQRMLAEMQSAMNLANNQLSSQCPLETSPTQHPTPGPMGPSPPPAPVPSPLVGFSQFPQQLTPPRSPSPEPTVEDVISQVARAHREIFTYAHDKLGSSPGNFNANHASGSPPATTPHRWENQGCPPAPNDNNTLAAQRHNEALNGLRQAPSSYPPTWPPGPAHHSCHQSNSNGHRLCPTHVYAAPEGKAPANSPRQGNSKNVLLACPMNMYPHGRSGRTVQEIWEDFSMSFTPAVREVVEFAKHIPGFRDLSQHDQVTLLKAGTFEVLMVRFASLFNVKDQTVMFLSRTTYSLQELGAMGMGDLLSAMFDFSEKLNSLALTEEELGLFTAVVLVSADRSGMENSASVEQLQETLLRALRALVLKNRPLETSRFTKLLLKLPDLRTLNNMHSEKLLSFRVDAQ
smiles,measurement,setting,value
CCCCCNC(=O)N1CCC(CN(Cc2ccc(Cl)cc2)Cc2ccc([N+](=O)[O-])s2)C1 (stereo unspecified) [SR9011],EC50,[1],2000 nM
same,EC50,[2],3000 nM
O=S(=O)(Nc1ccc(C(O)(C(F)(F)F)C(F)(F)F)cc1)c1cccs1,IC50,[3],3200 nM
same,IC50,[4],500 nM
same,IC50,[5],1500 nM
OC[C@H]1O[C@@H](c2ccc(Cl)c(Cc3ccc(OCCOC4CC4)cc3)c2)[C@H](O)[C@@H](O)[C@@H]1O [BEXAGLIFLOZIN],IC50,[6],2 nM
O=C(O)c1ccnc(N2CC(O)(c3ccc(OCc4c(-c5c(Cl)cccc5Cl)noc4C4CC4)cc3Cl)C2)c1 [CILOFEXOR],EC50,Bile acid receptor,40 nM
Nc1ncnc2nc(-c3ccc(N4CCOCC4)nc3)cc(-c3cccc(Br)c3)c12,IC50,Adenosine kinase,51 nM
CN(CCOc1ccc(-c2ccc3c(c2)OCO3)cc1C(C)(C)C)CC(=O)O,IC50,[7],15.8 nM
C[C@@H](Oc1ccc(S(C)(=O)=O)cc1C(=O)N1C[C@@H]2C[C@]2(c2cc(C(F)(F)F)on2)C1)C(F)(F)F [ICLEPERTIN],IC50,[8],5 nM
O=C(N(CCc1ccccc1)C1CCCCC1)n1ncc(-c2ccc(OC(F)(F)F)cc2)n1,IC50,[9],3.6 nM
O=C(Nc1ccc(C(O)(C(F)(F)F)C(F)(F)F)cc1)c1ccc(C(F)(F)F)cc1,EC50,[10],2000 nM
O=C(c1cccc(-c2ccc(-c3cn(C(=O)N4CCCCC4c4ccccc4)nn3)cc2)c1)N1CCCCC1 (stereo unspecified),IC50,[11],0.21 nM
Cc1oc2ccccc2c1Cc1cc(I)c(OCC(=O)O)c(I)c1,IC50,[12],2000 nM
CCNC(=O)/C=C/c1cccc(Br)c1 [CINROMIDE],IC50,[13],280 nM
same,IC50,[14],370 nM
